Measurements as given in patent publication US10750743B2, “Pyridazinone herbicides” (E.I. DU PONT DE NEMOURS AND COMPANY, priority 2015, dated 2020).

Experiments:
Type in all cases: in vivo
[1] = system: foxtail, giant (giant foxtail, Setaria faberii); assay: Test A preemergence, directed soil spray, visual injury rating; conditions: 0 is no effect, 100 is complete control
Outline: (§1)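 Seeds sown in a loam soil–sand blend received a directed preemergence soil spray of test chemical in a non-phytotoxic solvent mixture with surfactant. Postemergence plants were sprayed at 2 to 10 cm, one- to two-leaf stage. After approximately 10 d in greenhouse, injury was visually rated 0 (no effect) to 100 (complete control) against untreated controls.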

[2] = system: kochia (Kochia scoparia); assay: as above; conditions: 0 is no effect, 100 is complete control
Outline: as §1

[3] = system: ryegrass, It. (Italian ryegrass, Lolium multiflorum); assay: as above; conditions: 0 is no effect, 100 is complete control
Outline: as §1

[4] = system: ragweed (common ragweed, Ambrosia elatior); assay: as above; conditions: 0 is no effect, 100 is complete control
Outline: as §1

[5] = system: pigweed (Amaranthus retroflexus); assay: as above; conditions: 0 is no effect, 100 is complete control
Outline: as §1

[6] = system: barnyardgrass (Echinochloa crus-galli); assay: as above; conditions: 0 is no effect, 100 is complete control
Outline: as §1

[7] = system: foxtail, giant (giant foxtail, Setaria faberii); assay: Test A postemergence application, visual injury rating; conditions: 0 to 100 scale, 0 no effect, 100 complete control
Outline: as §1

[8] = system: wheat (Triticum aestivum); assay: as above; conditions: 0 to 100 scale, 0 no effect, 100 complete control
Outline: as §1

[9] = system: kochia (Kochia scoparia); assay: as above; conditions: 0 to 100 scale, 0 no effect, 100 complete control
Outline: as §1

[10] = system: ryegrass, It. (Italian ryegrass, Lolium multiflorum); assay: as above; conditions: 0 to 100 scale, 0 no effect, 100 complete control
Outline: as §1

[11] = system: ragweed (common ragweed, Ambrosia elatior); assay: as above; conditions: 0 to 100 scale, 0 no effect, 100 complete control
Outline: as §1

[12] = system: pigweed (Amaranthus retroflexus); assay: as above; conditions: 0 to 100 scale, 0 no effect, 100 complete control
Outline: as §1

[13] = system: blackgrass (Alopecurus myosuroides); assay: as above; conditions: 0 to 100 scale, 0 no effect, 100 complete control
Outline: as §1

[14] = system: corn (Zea mays); assay: as above; conditions: 0 to 100 scale, 0 no effect, 100 complete control
Outline: as §1

[15] = system: barnyardgrass (Echinochloa crus-galli); assay: as above; conditions: 0 to 100 scale, 0 no effect, 100 complete control
Outline: as §1

[16] = system: galium (catchweed bedstraw, Galium aparine); assay: as above; conditions: 0 to 100 scale, 0 no effect, 100 complete control
Outline: as §1

[17] = system: ducksalad (Heteranthera limosa); assay: Test B flooded paddy test, visual rating; conditions: Flood, 250 g ai/ha, applied to paddy water, rated after 13 to 15 d
Outline: (§2)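 Plants at the 2-leaf stage were flooded to 3 cm above soil, and test compounds were applied directly into the paddy water, which was held at that depth throughout. After 13 to 15 d in a greenhouse, injury was rated visually against untreated controls on a 0–100 scale (0 no effect, 100 complete control).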

[18] = system: sedge, umbrella (small-flower umbrella sedge, Cyperus difformis); assay: Test B flooded paddy test, visual rating; conditions: Flood, 250 g ai/ha, applied to paddy water, rated after 13 to 15 d
Outline: as §2

[19] = system: rice (Oryza sativa); assay: Test B flooded paddy test, visual rating; conditions: Flood, 250 g ai/ha, applied to paddy water, rated after 13 to 15 d
Outline: as §2

[20] = system: barnyardgrass (Echinochloa crus-galli); assay: Test B flooded paddy test, visual rating; conditions: Flood, 250 g ai/ha, applied to paddy water, rated after 13 to 15 d
Outline: as §2

Row | SMILES | Plant response rating (0 to 100 scale), Foxtail, Giant ([1]; 31 g ai/ha) | Plant response rating (0 to 100 scale), Foxtail, Giant ([1]; 125 g ai/ha) | Plant response rating (0 to 100 scale), Kochia ([2]; 31 g ai/ha) | Plant response rating (0 to 100 scale), Kochia ([2]; 125 g ai/ha) | Plant response rating (0 to 100 scale), Ryegrass, It. ([3]; 31 g ai/ha) | Plant response rating (0 to 100 scale), Ryegrass, It. ([3]; 125 g ai/ha) | Plant response rating (0 to 100 scale), Ragweed ([4]; 31 g ai/ha) | Plant response rating (0 to 100 scale), Ragweed ([4]; 125 g ai/ha) | Plant response rating (0 to 100 scale), Pigweed ([5]; 31 g ai/ha) | Plant response rating (0 to 100 scale), Pigweed ([5]; 125 g ai/ha) | Plant response rating (0 to 100 scale), Barnyardgrass ([6]; 31 g ai/ha) | Plant response rating (0 to 100 scale), Barnyardgrass ([6]; 125 g ai/ha) | Foxtail, Giant plant response rating ([7]; 31 g ai/ha) | Foxtail, Giant plant response rating ([7]; 125 g ai/ha) | Wheat plant response rating ([8]; 31 g ai/ha) | Wheat plant response rating ([8]; 125 g ai/ha) | Kochia plant response rating ([9]; 31 g ai/ha) | Kochia plant response rating ([9]; 125 g ai/ha) | Ryegrass, It. plant response rating ([10]; 31 g ai/ha) | Ryegrass, It. plant response rating ([10]; 125 g ai/ha) | further results
1 | CCC(=O)Oc1c(C)nn(C)c(=O)c1-c1ccc(Cl)c2ccsc12 [Compound 36] | 0 | 0 | 0 | 0 | 20 | 90 | 0 | 0 | 0 | 90 | 0 | 0 | 0 | 0 | 0 | 0 | 20 | 30 | 30 | 80 | Ragweed plant response rating ([11]; 31 g ai/ha): 0; Ragweed plant response rating ([11]; 125 g ai/ha): 0; Pigweed plant response rating ([12]; 31 g ai/ha): 0; Pigweed plant response rating ([12]; 125 g ai/ha): 30; Blackgrass plant response rating ([13]; 31 g ai/ha): 0; Blackgrass plant response rating ([13]; 125 g ai/ha): 0; Corn plant response rating ([14]; 31 g ai/ha): 0; Corn plant response rating ([14]; 125 g ai/ha): 0; Barnyardgrass plant response rating ([15]; 31 g ai/ha): 0; Barnyardgrass plant response rating ([15]; 125 g ai/ha): 10; Galium plant response rating ([16]; 31 g ai/ha): 90; Galium plant response rating ([16]; 125 g ai/ha): 100; Ducksalad plant response rating (0 to 100 scale, 0 is no effect, 100 is complete control) [17]: 0; Sedge, Umbrella plant response rating (0 to 100 scale, 0 is no effect, 100 is complete control) [18]: 80; Rice plant response rating (0 to 100 scale, 0 is no effect, 100 is complete control) [19]: 0; Barnyardgrass plant response rating (0 to 100 scale, 0 is no effect, 100 is complete control) [20]: 0
2 | Cc1nn(C)c(=O)c(-c2ccc(Cl)c3sc(Br)cc23)c1O [Compound 37] | 0 | 0 | 0 | 0 | 0 | 0 | 0 | 50 | 0 | 0 | 0 | 0 | 0 | 0 | 0 | 0 | 0 | 10 | 0 | 0 | Ragweed plant response rating ([11]; 31 g ai/ha): 0; Ragweed plant response rating ([11]; 125 g ai/ha): 0; Pigweed plant response rating ([12]; 31 g ai/ha): 0; Pigweed plant response rating ([12]; 125 g ai/ha): 0; Blackgrass plant response rating ([13]; 31 g ai/ha): 0; Blackgrass plant response rating ([13]; 125 g ai/ha): 0; Corn plant response rating ([14]; 31 g ai/ha): 0; Corn plant response rating ([14]; 125 g ai/ha): 0; Barnyardgrass plant response rating ([15]; 31 g ai/ha): 0; Barnyardgrass plant response rating ([15]; 125 g ai/ha): 0; Galium plant response rating ([16]; 31 g ai/ha): 20; Galium plant response rating ([16]; 125 g ai/ha): 40; Ducksalad plant response rating (0 to 100 scale, 0 is no effect, 100 is complete control) [17]: 0; Sedge, Umbrella plant response rating (0 to 100 scale, 0 is no effect, 100 is complete control) [18]: 0; Rice plant response rating (0 to 100 scale, 0 is no effect, 100 is complete control) [19]: 0; Barnyardgrass plant response rating (0 to 100 scale, 0 is no effect, 100 is complete control) [20]: 0
3 | Cn1nc(Cl)c(O)c(-c2cccc3[nH]nnc23)c1=O [Compound 38] | 0 | 0 | 0 | 0 | 0 | 0 | 0 | 0 | 0 | 0 | 0 | 0 | 0 | 0 | 0 | 0 | 0 | 0 | 0 | 0 | Ragweed plant response rating ([11]; 31 g ai/ha): 0; Ragweed plant response rating ([11]; 125 g ai/ha): 0; Pigweed plant response rating ([12]; 31 g ai/ha): 0; Pigweed plant response rating ([12]; 125 g ai/ha): 0; Blackgrass plant response rating ([13]; 31 g ai/ha): 0; Blackgrass plant response rating ([13]; 125 g ai/ha): 0; Corn plant response rating ([14]; 31 g ai/ha): 0; Corn plant response rating ([14]; 125 g ai/ha): 0; Barnyardgrass plant response rating ([15]; 31 g ai/ha): 0; Barnyardgrass plant response rating ([15]; 125 g ai/ha): 0; Galium plant response rating ([16]; 31 g ai/ha): 0; Galium plant response rating ([16]; 125 g ai/ha): 0; Ducksalad plant response rating (0 to 100 scale, 0 is no effect, 100 is complete control) [17]: 0; Sedge, Umbrella plant response rating (0 to 100 scale, 0 is no effect, 100 is complete control) [18]: 0; Rice plant response rating (0 to 100 scale, 0 is no effect, 100 is complete control) [19]: 0; Barnyardgrass plant response rating (0 to 100 scale, 0 is no effect, 100 is complete control) [20]: 0
